Results reported in US20250230193A1, “CYCLIC COMPOUND HAVING SELECTIVE KRAS INHIBITORY EFFECT ON HRAS AND NRAS” (CHUGAI SEIYAKU KABUSHIKI KAISHA, priority 2022, published 2025).

Assays:
[1] = biological target: GDP-bound NRAS wild-type protein (Homo sapiens, UniProt P01111); assay: Binding to NRAS by surface plasmon resonance (SPR), Single Cycle Kinetics; details: KD ratio, GDP-bound NRAS wild-type vs GDP-bound KRAS wild-type, SPR
[2] = biological target: GDP-bound HRAS wild-type protein (Homo sapiens, UniProt P01112); assay: Binding to HRAS by surface plasmon resonance (SPR), Single Cycle Kinetics; details: KD ratio, GDP-bound HRAS wild-type vs GDP-bound KRAS wild-type, SPR
Chain of GDP-bound HRAS wild-type protein (P01112 whole entry): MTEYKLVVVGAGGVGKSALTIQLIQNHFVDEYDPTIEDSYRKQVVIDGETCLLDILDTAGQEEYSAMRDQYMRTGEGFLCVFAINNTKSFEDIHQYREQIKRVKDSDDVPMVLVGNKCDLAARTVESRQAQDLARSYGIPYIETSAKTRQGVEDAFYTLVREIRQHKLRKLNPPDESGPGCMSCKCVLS

Chain of GDP-bound NRAS wild-type protein (P01111 whole entry): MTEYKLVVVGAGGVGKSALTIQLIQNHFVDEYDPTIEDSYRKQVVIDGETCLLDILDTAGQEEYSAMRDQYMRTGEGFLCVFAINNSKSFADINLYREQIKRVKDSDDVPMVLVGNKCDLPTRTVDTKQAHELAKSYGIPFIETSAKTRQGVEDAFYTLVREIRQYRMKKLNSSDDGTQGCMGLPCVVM

CCC[C@H]1C(=O)N[C@@H]([C@@H](C)CC)C(=O)N(C)CC(=O)N(C)[C@H]2C/C=C\CCN(C2=O)[C@@H](Cc2ccc(C(F)(F)F)cc2)C(=O)N(C)CC(=O)N[C@@H](CCc2ccc(C(F)(F)F)c(Cl)c2)C(=O)N2C[C@H](OCC)C[C@H]2C(=O)NC2(CC(C)(C)C2)C(=O)N(C)[C@@H](C2CCCC2)C(=O)N(C)[C@H](C(=O)N(C)C)CC(=O)N1C [PP1748]
NRAS/KRAS (ratio of KD value for NRAS to KD value for KRAS) [1]: A (a compound having 10 or more and less than 20 is denoted as A) | HRAS/KRAS (ratio of KD value for HRAS to KD value for KRAS) [2]: B (a compound having 3 or more and less than 10 is denoted as B)

CCO[C@@H]1C[C@H]2C(=O)NC3(CC(C)(C)C3)C(=O)N(C)[C@@H](C3CCCC3)C(=O)N(C)[C@H](C(=O)N(C)C)CC(=O)N(C)[C@@H](CC3CC3)C(=O)N[C@@H]([C@@H](C)CC)C(=O)N(C)CC(=O)N(C)[C@H]3C/C=C\CCN(C3=O)[C@@H](Cc3ccc(C(F)(F)F)cc3)C(=O)N(C)CC(=O)N[C@@H](CCc3ccc(C(F)(F)F)c(Cl)c3)C(=O)N2C1 [PP1749]
NRAS/KRAS (ratio of KD value for NRAS to KD value for KRAS) [1]: A (a compound having 10 or more and less than 20 is denoted as A) | HRAS/KRAS (ratio of KD value for HRAS to KD value for KRAS) [2]: A (a compound having 10 or more and less than 20 is denoted as A)

CCCC[C@H]1C(=O)N[C@@H]([C@@H](C)CC)C(=O)N(C)CC(=O)N(C)[C@H]2C/C=C\CCN(C2=O)[C@@H](Cc2ccc(C(F)(F)F)cc2)C(=O)N(C)CC(=O)N[C@@H](CCc2ccc(C(F)(F)F)c(Cl)c2)C(=O)N2C[C@H](OCC)C[C@H]2C(=O)NC2(CC(C)(C)C2)C(=O)N(C)[C@@H](C2CCCC2)C(=O)N(C)[C@H](C(=O)N(C)C)CC(=O)N1C [PP1750]
NRAS/KRAS (ratio of KD value for NRAS to KD value for KRAS) [1]: A (a compound having 10 or more and less than 20 is denoted as A) | HRAS/KRAS (ratio of KD value for HRAS to KD value for KRAS) [2]: B (a compound having 3 or more and less than 10 is denoted as B)

CCO[C@@H]1C[C@H]2C(=O)NC3(CC(C)(C)C3)C(=O)N(C)[C@@H](C3CCCC3)C(=O)N(C)[C@H](C(=O)N(C)C)CC(=O)N(C)[C@@H](CC(C)C)C(=O)N[C@@H]([C@@H](C)CC)C(=O)N(C)CC(=O)N(C)[C@H]3C/C=C\CCN(C3=O)[C@@H](Cc3ccc(C(F)(F)F)cc3)C(=O)N(C)CC(=O)N[C@@H](CCc3ccc(C(F)(F)F)c(Cl)c3)C(=O)N2C1 [PP1751]
NRAS/KRAS (ratio of KD value for NRAS to KD value for KRAS) [1]: A (a compound having 10 or more and less than 20 is denoted as A) | HRAS/KRAS (ratio of KD value for HRAS to KD value for KRAS) [2]: A (a compound having 10 or more and less than 20 is denoted as A)

CCO[C@@H]1C[C@H]2C(=O)NC3(CC(C)(C)C3)C(=O)N(C)[C@@H](C3CCCC3)C(=O)N(C)[C@H](C(=O)N(C)C)CC(=O)N(C)[C@@H](CC3CCC3)C(=O)N[C@@H]([C@@H](C)CC)C(=O)N(C)CC(=O)N(C)[C@H]3C/C=C\CCN(C3=O)[C@@H](Cc3ccc(C(F)(F)F)cc3)C(=O)N(C)CC(=O)N[C@@H](CCc3ccc(C(F)(F)F)c(Cl)c3)C(=O)N2C1 [PP1752]
NRAS/KRAS (ratio of KD value for NRAS to KD value for KRAS) [1]: A (a compound having 10 or more and less than 20 is denoted as A) | HRAS/KRAS (ratio of KD value for HRAS to KD value for KRAS) [2]: A (a compound having 10 or more and less than 20 is denoted as A)

CCO[C@@H]1C[C@H]2C(=O)NC3(CC(C)(C)C3)C(=O)N(C)[C@@H](C3CCCC3)C(=O)N(C)[C@H](C(=O)N(C)C)CC(=O)N(C)[C@@H](COC)C(=O)N[C@@H]([C@@H](C)CC)C(=O)N(C)CC(=O)N(C)[C@H]3C/C=C\CCN(C3=O)[C@@H](Cc3ccc(C(F)(F)F)cc3)C(=O)N(C)CC(=O)N[C@@H](CCc3ccc(C(F)(F)F)c(Cl)c3)C(=O)N2C1 [PP1753]
NRAS/KRAS (ratio of KD value for NRAS to KD value for KRAS) [1]: A (a compound having 10 or more and less than 20 is denoted as A) | HRAS/KRAS (ratio of KD value for HRAS to KD value for KRAS) [2]: A (a compound having 10 or more and less than 20 is denoted as A)

CCCOC[C@H]1C(=O)N[C@@H]([C@@H](C)CC)C(=O)N(C)CC(=O)N(C)[C@H]2C/C=C\CCN(C2=O)[C@@H](Cc2ccc(C(F)(F)F)cc2)C(=O)N(C)CC(=O)N[C@@H](CCc2ccc(C(F)(F)F)c(Cl)c2)C(=O)N2C[C@H](OCC)C[C@H]2C(=O)NC2(CC(C)(C)C2)C(=O)N(C)[C@@H](C2CCCC2)C(=O)N(C)[C@H](C(=O)N(C)C)CC(=O)N1C [PP1754]
NRAS/KRAS (ratio of KD value for NRAS to KD value for KRAS) [1]: A (a compound having 10 or more and less than 20 is denoted as A) | HRAS/KRAS (ratio of KD value for HRAS to KD value for KRAS) [2]: A (a compound having 10 or more and less than 20 is denoted as A)

CCCN(C)C(=O)[C@@H]1CC(=O)N(C)[C@@H](CC(F)F)C(=O)N[C@@H]([C@@H](C)CC)C(=O)N(C)CC(=O)N(C)[C@H]2C/C=C\CCN(C2=O)[C@@H](Cc2ccc(C(F)(F)F)cc2)C(=O)N(C)CC(=O)N[C@@H](CCc2cc(F)c(Cl)c(F)c2)C(=O)N2C[C@H](OCC)C[C@H]2C(=O)NC2(CC(C)(C)C2)C(=O)N(C)[C@@H](C2CCCC2)C(=O)N1C [PP1757]
NRAS/KRAS (ratio of KD value for NRAS to KD value for KRAS) [1]: AA (a compound having 20 or more is denoted as AA) | HRAS/KRAS (ratio of KD value for HRAS to KD value for KRAS) [2]: A (a compound having 10 or more and less than 20 is denoted as A)

CCC[C@H]1C(=O)N[C@@H]([C@@H](C)CC)C(=O)N(C)CC(=O)N(C)[C@H]2C/C=C\CCN(C2=O)[C@@H](Cc2ccc(C(F)(F)F)cc2)C(=O)N(C)CC(=O)N[C@@H](CCc2cc(F)c(Cl)c(F)c2)C(=O)N2C[C@H](OCC)C[C@H]2C(=O)NC2(CC(C)(C)C2)C(=O)N(C)[C@@H](C2CCCC2)C(=O)N(C)[C@H](C(=O)N(C)C)CC(=O)N1C [PP1758]
NRAS/KRAS (ratio of KD value for NRAS to KD value for KRAS) [1]: AA (a compound having 20 or more is denoted as AA) | HRAS/KRAS (ratio of KD value for HRAS to KD value for KRAS) [2]: A (a compound having 10 or more and less than 20 is denoted as A)

CCO[C@@H]1C[C@H]2C(=O)NC3(CC(C)(C)C3)C(=O)N(C)[C@@H](C3CCCC3)C(=O)N(C)[C@H](C(=O)N(C)C)CC(=O)N(C)[C@@H](CC3CC3)C(=O)N[C@@H]([C@@H](C)CC)C(=O)N(C)CC(=O)N(C)[C@H]3C/C=C\CCN(C3=O)[C@@H](Cc3ccc(C(F)(F)F)cc3)C(=O)N(C)CC(=O)N[C@@H](CCc3cc(F)c(Cl)c(F)c3)C(=O)N2C1 [PP1759]
NRAS/KRAS (ratio of KD value for NRAS to KD value for KRAS) [1]: A (a compound having 10 or more and less than 20 is denoted as A) | HRAS/KRAS (ratio of KD value for HRAS to KD value for KRAS) [2]: A (a compound having 10 or more and less than 20 is denoted as A)

CCO[C@@H]1C[C@H]2C(=O)NC3(CC(C)(C)C3)C(=O)N(C)[C@@H](C3CCCC3)C(=O)N(C)[C@H](C(=O)N(C)C)CC(=O)N(C)[C@@H](CC(C)C)C(=O)N[C@@H]([C@@H](C)CC)C(=O)N(C)CC(=O)N(C)[C@H]3C/C=C\CCN(C3=O)[C@@H](Cc3ccc(C(F)(F)F)cc3)C(=O)N(C)CC(=O)N[C@@H](CCc3cc(F)c(Cl)c(F)c3)C(=O)N2C1 [PP1761]
NRAS/KRAS (ratio of KD value for NRAS to KD value for KRAS) [1]: A (a compound having 10 or more and less than 20 is denoted as A) | HRAS/KRAS (ratio of KD value for HRAS to KD value for KRAS) [2]: A (a compound having 10 or more and less than 20 is denoted as A)

CCO[C@@H]1C[C@H]2C(=O)NC3(CC(C)(C)C3)C(=O)N(C)[C@@H](C3CCCC3)C(=O)N(C)[C@H](C(=O)N(C)C)CC(=O)N(C)[C@@H](CC3CCC3)C(=O)N[C@@H]([C@@H](C)CC)C(=O)N(C)CC(=O)N(C)[C@H]3C/C=C\CCN(C3=O)[C@@H](Cc3ccc(C(F)(F)F)cc3)C(=O)N(C)CC(=O)N[C@@H](CCc3cc(F)c(Cl)c(F)c3)C(=O)N2C1 [PP1762]
NRAS/KRAS (ratio of KD value for NRAS to KD value for KRAS) [1]: A (a compound having 10 or more and less than 20 is denoted as A) | HRAS/KRAS (ratio of KD value for HRAS to KD value for KRAS) [2]: A (a compound having 10 or more and less than 20 is denoted as A)

CCCN(C)C(=O)[C@@H]1CC(=O)N(C)[C@@H](COC)C(=O)N[C@@H]([C@@H](C)CC)C(=O)N(C)CC(=O)N(C)[C@H]2C/C=C\CCN(C2=O)[C@@H](Cc2ccc(C(F)(F)F)cc2)C(=O)N(C)CC(=O)N[C@@H](CCc2cc(F)c(Cl)c(F)c2)C(=O)N2C[C@H](OCC)C[C@H]2C(=O)NC2(CC(C)(C)C2)C(=O)N(C)[C@@H](C2CCCC2)C(=O)N1C [PP1763]
NRAS/KRAS (ratio of KD value for NRAS to KD value for KRAS) [1]: A (a compound having 10 or more and less than 20 is denoted as A) | HRAS/KRAS (ratio of KD value for HRAS to KD value for KRAS) [2]: A (a compound having 10 or more and less than 20 is denoted as A)

CCCOC[C@H]1C(=O)N[C@@H]([C@@H](C)CC)C(=O)N(C)CC(=O)N(C)[C@H]2C/C=C\CCN(C2=O)[C@@H](Cc2ccc(C(F)(F)F)cc2)C(=O)N(C)CC(=O)N[C@@H](CCc2cc(F)c(Cl)c(F)c2)C(=O)N2C[C@H](OCC)C[C@H]2C(=O)NC2(CC(C)(C)C2)C(=O)N(C)[C@@H](C2CCCC2)C(=O)N(C)[C@H](C(=O)N(C)C)CC(=O)N1C [PP1764]
NRAS/KRAS (ratio of KD value for NRAS to KD value for KRAS) [1]: AA (a compound having 20 or more is denoted as AA) | HRAS/KRAS (ratio of KD value for HRAS to KD value for KRAS) [2]: A (a compound having 10 or more and less than 20 is denoted as A)

CCO[C@@H]1C[C@H]2C(=O)NC3(CCC3)C(=O)N(C)[C@@H](C3CCCC3)C(=O)N(C)[C@H](C(=O)N(C)C)CC(=O)N(CC)[C@@H](CC(C)C)C(=O)N[C@@H]([C@@H](C)CC)C(=O)N(C)CC(=O)N(C)[C@H]3C/C=C\CCN(C3=O)[C@@H](Cc3ccc(C(F)(F)F)cc3)C(=O)N(C)CC(=O)N[C@@H](CCc3cc(F)c(C(F)(F)F)c(F)c3)C(=O)N2C1 [PP1765]
NRAS/KRAS (ratio of KD value for NRAS to KD value for KRAS) [1]: A (a compound having 10 or more and less than 20 is denoted as A) | HRAS/KRAS (ratio of KD value for HRAS to KD value for KRAS) [2]: A (a compound having 10 or more and less than 20 is denoted as A)

CCC[C@H]1C(=O)N[C@@H]([C@@H](C)CC)C(=O)N(CCC)CC(=O)N(C)[C@H]2C/C=C\CCN(C2=O)[C@@H](Cc2ccc(C(F)(F)F)cc2)C(=O)N(C)CC(=O)N[C@@H](CCc2cc(F)c(C(F)(F)F)c(F)c2)C(=O)N2C[C@H](OCC)C[C@H]2C(=O)NC2(CCC2)C(=O)N(C)[C@@H](C2CCCC2)C(=O)N(C)[C@H](C(=O)N(C)C)CC(=O)N1C [PP1767]
NRAS/KRAS (ratio of KD value for NRAS to KD value for KRAS) [1]: A (a compound having 10 or more and less than 20 is denoted as A) | HRAS/KRAS (ratio of KD value for HRAS to KD value for KRAS) [2]: B (a compound having 3 or more and less than 10 is denoted as B)
